Among the data in PubChem BioAssay (NCI) are TGI and GI50 values, retold here.

The structures appear in SMILES notation.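 Exposure lasted 48 hours, with cells grown in 96-well plates and compounds tested at five concentrations. At the GI50, growth is halved. The concentration for full growth arrest is given as TGI.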 A value given as a limit tells only on which side of the number the result lay.

Test systems include EKVX NSCLC; HCT-15 colon; M14 melanoma; OVCAR-3 ovarian; OVCAR-4 ovarian; RXF 393 renal; SN12C renal; T-47D breast; TK-10 renal; UACC-62 melanoma.
Common to all, as to assay: inhibition of tumour cell growth, NCI panel, 48 h

`CC(OC(=O)C(CC(=O)OC(C)(C)C)NC(=O)OC(C)(C)C)C(=O)OCc1ccccc1` (configuration not stated): the TGI in the assay with EKVX NSCLC, in the assay with HCT-15 colon, in the assay with M14 melanoma, in the assay on OVCAR-3 ovarian, in the assay with OVCAR-4 ovarian and in the assay with RXF 393 renal was over 100 µM throughout. For the same compound, the TGI in the assay on SN12C renal, with T-47D breast, in the assay with TK-10 renal and in the assay with UACC-62 melanoma was over 100 µM throughout.

As to `CCOC(=O)C(NC(=O)c1ccccc1)(Nc1ccc(Cl)cc1C(F)(F)F)C(F)(F)F` (configuration not stated), the TGI in the assay with EKVX NSCLC is over 100 µM; in the assay with HCT-15 colon, over 50.9 µM; with M14 melanoma, 28 µM; with OVCAR-3 ovarian, 18.7 µM; in the assay with OVCAR-4 ovarian, over 100 µM; with RXF 393 renal, 24.7 µM. The TGI in the assay with SN12C renal is over 44.2 µM; with T-47D breast, over 45.6 µM; in the assay with TK-10 renal it was over 100 µM; in the assay with UACC-62 melanoma, 27.4 µM.

Turning to `CC1CCC2(CC1)NC1=C(CC(C)CC1)C1=C2CC(C)CC1` (configuration not stated), the TGI in the assay on EKVX NSCLC is over 100 µM; in the assay on HCT-15 colon, 45.9 µM; in the assay with M14 melanoma, 40.6 µM; in the assay with OVCAR-3 ovarian, 37.4 µM; in the assay on OVCAR-4 ovarian, 94.2 µM; in the assay with RXF 393 renal, 30.7 µM. Also, the TGI is 78.6 µM with T-47D breast and 89.2 µM in the assay on TK-10 renal.

Regarding `COc1ccc(C2C3CCc4ccccc4C3=NN2S(=O)(=O)c2ccc(/C=C/C(=O)O)cc2)cc1` (configuration not stated), the TGI in the assay with EKVX NSCLC is over 100 µM; in the assay on HCT-15 colon, 0.717 µM; in the assay with M14 melanoma it was over 100 µM; in the assay with OVCAR-3 ovarian, 86.3 µM; in the assay on OVCAR-4 ovarian, 54.1 µM; in the assay on RXF 393 renal, 31.4 µM. Further, the TGI with SN12C renal is over 100 µM; in the assay on T-47D breast, over 100 µM; with TK-10 renal it was over 100 µM; with UACC-62 melanoma, 23.8 µM.

For the compound `COC(=O)/C=C/C1(O)C=CC(=O)C=C1`, the TGI with EKVX NSCLC was 10.4 µM; with HCT-15 colon, over 31.9 µM; with M14 melanoma, 3.78 µM; with OVCAR-3 ovarian, 4.93 µM; in the assay with OVCAR-4 ovarian, 15.6 µM; in the assay on RXF 393 renal, over 25.1 µM. Besides, the TGI in the assay with SN12C renal was 3.32 µM; in the assay on T-47D breast, over 20.8 µM; in the assay with TK-10 renal, 16.4 µM; in the assay with UACC-62 melanoma, 7.43 µM.

As for `COC(=O)[C@H](CC(C)C)Nc1c(O)c2c(c(O)c1Cl)C(=O)C=CC2=O`, the TGI was over 10 µM in the assay on EKVX NSCLC; over 10 µM in the assay on HCT-15 colon; over 10 µM in the assay with M14 melanoma; 6 µM in the assay on OVCAR-3 ovarian; over 10 µM in the assay on OVCAR-4 ovarian; over 10 µM with RXF 393 renal. The TGI in the assay on SN12C renal, in the assay with T-47D breast, in the assay on TK-10 renal and in the assay on UACC-62 melanoma was over 10 µM in each case.

On to `COc1ccc(C2CC3(c4ccccc4)ON=C(c4ccccc4)N3c3ccccc3S2)cc1` (configuration not stated), for which the TGI in the assay on EKVX NSCLC, with HCT-15 colon, with M14 melanoma, with OVCAR-3 ovarian, in the assay with OVCAR-4 ovarian and with RXF 393 renal was over 100 µM in each case. Also, the TGI in the assay with SN12C renal, in the assay on T-47D breast, in the assay on TK-10 renal and in the assay on UACC-62 melanoma was over 100 µM each time.

For `CN1CCC2(CC1)C(=NC1CCCCC1)NC(=S)N2c1ccccc1`, the TGI in the assay on EKVX NSCLC, in the assay with HCT-15 colon, in the assay with M14 melanoma, in the assay with OVCAR-4 ovarian, in the assay with RXF 393 renal and in the assay on SN12C renal was over 100 µM each time. The TGI in the assay with T-47D breast, in the assay with TK-10 renal and in the assay with UACC-62 melanoma was over 100 µM each time.

Regarding `CC(=O)OC12c3ccccc3-c3ccccc3C1C1C(=O)OC(=O)C12` (configuration not stated), the TGI with EKVX NSCLC, with HCT-15 colon, in the assay with M14 melanoma, in the assay on OVCAR-3 ovarian, with OVCAR-4 ovarian and in the assay on RXF 393 renal was over 10 µM throughout. Further, the TGI in the assay with SN12C renal, in the assay with T-47D breast and with TK-10 renal was over 10 µM throughout.

On to `CCOC(=O)C(=O)/C(=C/N1C(=O)CC(=O)NC1=S)C(=O)OCC`, for which the TGI in the assay on EKVX NSCLC was over 100 µM; with HCT-15 colon, over 100 µM; with M14 melanoma, over 100 µM; with OVCAR-3 ovarian it was over 60.2 µM; in the assay on OVCAR-4 ovarian, over 100 µM; with RXF 393 renal, over 100 µM. Besides, the TGI in the assay with SN12C renal, in the assay on T-47D breast, in the assay on TK-10 renal and with UACC-62 melanoma was over 100 µM each time. Also, the GI50 in the assay with TK-10 renal was over 100 µM.

Turning to `O=C1C=CC(=O)c2c1ccc1c3ccccc3n(Cc3cccc([N+](=O)[O-])c3)c21`, the TGI was over 100 µM in the assay on EKVX NSCLC; 50.2 µM with HCT-15 colon; 71.7 µM with M14 melanoma; 34.6 µM in the assay on OVCAR-3 ovarian; over 63.8 µM in the assay with OVCAR-4 ovarian; 39.2 µM in the assay on RXF 393 renal. Moreover, the TGI was 49.1 µM with SN12C renal, 67.7 µM in the assay with T-47D breast, 44.8 µM in the assay on TK-10 renal and over 78.6 µM with UACC-62 melanoma.

Regarding `C=C(CN1CC2C[C@](C(=O)OC)(c3cc4ccccc4[nH]3)C1C(OC)C2OC)S(=O)(=O)c1ccccc1` (some centres not stated), the TGI in the assay on EKVX NSCLC came to 13 µM; in the assay on HCT-15 colon it was 8.61 µM; in the assay on M14 melanoma, 9.36 µM; with OVCAR-3 ovarian, 10.2 µM; in the assay on OVCAR-4 ovarian, 12.5 µM; in the assay on RXF 393 renal it was 10.1 µM. Besides, the TGI with SN12C renal was found to be 11.3 µM; with T-47D breast it was 28.2 µM; in the assay with TK-10 renal, 17.4 µM; with UACC-62 melanoma it was 14.8 µM.

In the case of `Fc1ccc(-c2sc(-c3cccs3)cc2Cc2cccs2)cc1`, the TGI with EKVX NSCLC, with HCT-15 colon, with M14 melanoma, with OVCAR-3 ovarian, in the assay with OVCAR-4 ovarian and in the assay on RXF 393 renal was over 100 µM throughout. Besides, the TGI in the assay with SN12C renal, in the assay with T-47D breast, in the assay with TK-10 renal and in the assay with UACC-62 melanoma was over 100 µM in each case.
